From US20230117470A1, “SUBSTITUTED PYRAZOLE COMPOUNDS AS TOLL RECEPTOR INHIBITORS” (BRISTOL-MYERS SQUIBB COMPANY, priority 2019, published 2023)

Experiments:
Type in all cases: cell-based
human TLR7 = target: T1, human TLR7 (Homo sapiens, UniProt Q9NYK1); assay: TLR7 inhibition reporter assay (HEK-Blue cells, SEAP reporter, gardiquimod stimulation); settings: HEK-Blue cells overexpressing human TLR7, SEAP reporter, gardiquimod 7.5 μM
T1 construct: host or cells: HEK-Blue cells
T1 sequence (Q9NYK1 27-1049): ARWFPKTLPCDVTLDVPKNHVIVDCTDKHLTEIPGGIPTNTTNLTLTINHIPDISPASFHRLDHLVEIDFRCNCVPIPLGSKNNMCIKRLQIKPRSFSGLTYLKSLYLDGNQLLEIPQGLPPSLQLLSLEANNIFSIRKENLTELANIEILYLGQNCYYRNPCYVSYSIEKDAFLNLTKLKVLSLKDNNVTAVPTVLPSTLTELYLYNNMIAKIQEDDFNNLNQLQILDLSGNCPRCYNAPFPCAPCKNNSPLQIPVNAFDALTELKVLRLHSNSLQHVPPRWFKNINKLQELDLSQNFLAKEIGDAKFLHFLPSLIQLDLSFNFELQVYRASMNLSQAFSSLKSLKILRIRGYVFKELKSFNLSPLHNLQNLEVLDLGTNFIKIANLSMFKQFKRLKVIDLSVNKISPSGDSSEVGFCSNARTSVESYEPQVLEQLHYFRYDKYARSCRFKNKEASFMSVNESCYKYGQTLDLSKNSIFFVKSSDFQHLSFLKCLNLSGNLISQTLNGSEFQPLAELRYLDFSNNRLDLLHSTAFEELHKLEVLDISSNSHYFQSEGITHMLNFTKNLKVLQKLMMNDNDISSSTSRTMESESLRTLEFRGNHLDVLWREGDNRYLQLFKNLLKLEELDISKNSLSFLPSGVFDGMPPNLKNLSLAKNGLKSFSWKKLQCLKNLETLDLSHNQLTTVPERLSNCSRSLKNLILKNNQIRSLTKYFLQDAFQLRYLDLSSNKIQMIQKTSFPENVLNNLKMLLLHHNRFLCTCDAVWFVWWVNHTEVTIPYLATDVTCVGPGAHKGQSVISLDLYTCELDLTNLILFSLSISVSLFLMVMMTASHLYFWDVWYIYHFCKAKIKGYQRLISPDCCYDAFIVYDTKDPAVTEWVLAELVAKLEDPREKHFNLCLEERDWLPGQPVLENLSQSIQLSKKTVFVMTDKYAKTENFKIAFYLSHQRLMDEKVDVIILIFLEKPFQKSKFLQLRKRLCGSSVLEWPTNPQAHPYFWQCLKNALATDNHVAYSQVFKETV
How it was run: (§1)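 HEK-Blue cells overexpressing human TLR7, TLR8 or TLR9, with an NF-κB/AP-1-driven SEAP reporter, pre-treated 30 min at room temperature with compound (0.05 nM-50 μM final). Stimulated with 7.5 μM gardiquimod (TLR7), 15.9 μM R848 (TLR8) or 5 nM ODN2006 (TLR9), then 22 h at 37° C. SEAP read with HEK-Blue Detection; % inhibition set against agonist+DMSO and known-inhibitor wells.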

human TLR8 = target: T2, human TLR8 (Homo sapiens, UniProt Q9NR97); assay: TLR8 inhibition reporter assay (HEK-Blue cells, SEAP reporter, R848 stimulation); settings: HEK-Blue cells overexpressing human TLR8, SEAP reporter, R848 15.9 μM
T2 construct: host or cells: HEK-Blue cells
T2 sequence (Q9NR97 27-1041): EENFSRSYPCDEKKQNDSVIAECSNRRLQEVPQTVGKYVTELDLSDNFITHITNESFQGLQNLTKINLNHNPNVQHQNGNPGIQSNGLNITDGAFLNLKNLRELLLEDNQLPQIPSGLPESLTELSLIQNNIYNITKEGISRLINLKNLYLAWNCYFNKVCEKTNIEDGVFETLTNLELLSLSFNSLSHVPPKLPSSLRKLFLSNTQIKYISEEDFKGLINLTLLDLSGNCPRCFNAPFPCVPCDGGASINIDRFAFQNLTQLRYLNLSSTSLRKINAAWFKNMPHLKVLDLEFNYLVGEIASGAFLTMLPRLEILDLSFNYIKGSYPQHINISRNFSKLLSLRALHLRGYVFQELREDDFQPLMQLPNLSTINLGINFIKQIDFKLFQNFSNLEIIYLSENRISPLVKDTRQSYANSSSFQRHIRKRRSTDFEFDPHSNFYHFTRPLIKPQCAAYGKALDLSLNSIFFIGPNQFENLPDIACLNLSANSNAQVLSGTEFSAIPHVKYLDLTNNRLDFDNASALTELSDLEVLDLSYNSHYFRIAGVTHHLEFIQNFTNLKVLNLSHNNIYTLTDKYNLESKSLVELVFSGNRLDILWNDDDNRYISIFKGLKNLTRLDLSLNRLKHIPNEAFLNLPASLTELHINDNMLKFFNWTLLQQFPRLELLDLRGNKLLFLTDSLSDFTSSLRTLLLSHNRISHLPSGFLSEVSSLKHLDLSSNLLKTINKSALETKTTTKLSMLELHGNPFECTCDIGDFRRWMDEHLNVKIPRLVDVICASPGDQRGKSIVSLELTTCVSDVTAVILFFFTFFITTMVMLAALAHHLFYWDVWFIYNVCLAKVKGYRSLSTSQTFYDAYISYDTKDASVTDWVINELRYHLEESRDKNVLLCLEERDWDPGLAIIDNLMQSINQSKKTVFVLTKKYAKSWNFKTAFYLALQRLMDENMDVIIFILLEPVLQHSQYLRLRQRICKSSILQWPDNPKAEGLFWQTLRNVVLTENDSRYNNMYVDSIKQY
How it was run: as §1

human TLR9 = target: T3, human TLR9 (Homo sapiens, UniProt Q9NR96); assay: TLR9 inhibition reporter assay (HEK-Blue cells, SEAP reporter, ODN2006 stimulation); settings: HEK-Blue cells overexpressing human TLR9, SEAP reporter, ODN2006 5 nM
T3 construct: host or cells: HEK-Blue cells
T3 sequence (Q9NR96 26-1032): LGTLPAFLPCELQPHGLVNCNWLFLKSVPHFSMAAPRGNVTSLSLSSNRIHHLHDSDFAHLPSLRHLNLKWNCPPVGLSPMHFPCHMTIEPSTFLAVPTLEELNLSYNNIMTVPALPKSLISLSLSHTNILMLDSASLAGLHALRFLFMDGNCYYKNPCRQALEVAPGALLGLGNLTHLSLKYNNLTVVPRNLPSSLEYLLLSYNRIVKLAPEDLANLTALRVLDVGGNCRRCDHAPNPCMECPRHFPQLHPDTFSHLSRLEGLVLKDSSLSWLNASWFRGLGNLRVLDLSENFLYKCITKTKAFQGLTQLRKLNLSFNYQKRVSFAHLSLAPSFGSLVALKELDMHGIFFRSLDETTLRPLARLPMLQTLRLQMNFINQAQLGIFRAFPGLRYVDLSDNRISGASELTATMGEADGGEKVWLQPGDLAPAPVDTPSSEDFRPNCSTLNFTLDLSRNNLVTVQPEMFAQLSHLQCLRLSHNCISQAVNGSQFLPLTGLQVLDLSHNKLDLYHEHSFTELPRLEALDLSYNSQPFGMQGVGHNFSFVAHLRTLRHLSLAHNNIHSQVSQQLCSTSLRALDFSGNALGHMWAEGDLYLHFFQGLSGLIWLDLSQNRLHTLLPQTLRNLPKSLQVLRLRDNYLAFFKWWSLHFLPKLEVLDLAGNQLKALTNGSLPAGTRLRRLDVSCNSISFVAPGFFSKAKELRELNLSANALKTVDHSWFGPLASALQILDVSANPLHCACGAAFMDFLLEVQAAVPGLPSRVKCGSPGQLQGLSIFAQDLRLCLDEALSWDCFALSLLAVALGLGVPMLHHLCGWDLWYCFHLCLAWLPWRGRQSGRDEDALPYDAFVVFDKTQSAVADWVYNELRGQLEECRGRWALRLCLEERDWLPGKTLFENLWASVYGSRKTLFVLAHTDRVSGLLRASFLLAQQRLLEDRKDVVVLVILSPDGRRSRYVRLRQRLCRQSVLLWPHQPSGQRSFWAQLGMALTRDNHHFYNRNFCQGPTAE
How it was run: as §1

SMILES	IC50 (human TLR7)	IC50 (human TLR8)	IC50 (human TLR9)
COCCN1CCc2cc(-c3n[nH]c(-c4cc(C)c5ncnn5c4)c3C(C)C)ccc2C1 [Example 263, 6-(4-isopropyl-5-(8-methyl-[1,2,4]triazolo[1,5-a]pyridin-6-yl)-1H-pyrazol-3-yl)-2-(2-methoxyethyl)-1,2,3,4-tetrahydroisoquinoline]	4.74 nM	4.48 nM	18100 nM
Cc1cc(-c2[nH]nc(-c3cnc(N)cn3)c2C(C)C)cn2ncnc12 [Example 226]	0.35 nM	0.41 nM	6780 nM
Cc1cc(-c2[nH]nc(-c3ccc(C4CN(C)C4)cc3)c2C(C)C)cn2ncnc12 [Example 324, 6-(4-isopropyl-3-(4-(1-methylazetidin-3-yl)phenyl)-1H-pyrazol-5-yl)-8-methyl-[1,2,4]triazolo[1,5-a]pyridine]	6.96 nM	2.26 nM	6240 nM
Cc1cc(-c2[nH]nc(-c3ccc(C4CCN(C)CC4)cc3)c2C(C)C)cn2ncnc12 [Example 309]	6.67 nM	4.19 nM	14400 nM
COc1cc(-c2[nH]nc(-c3ccc(C4CCN(CC(C)(C)O)CC4)cc3)c2C(C)C)cn2ncnc12 [Example 319]	3.84 nM	0.53 nM	19400 nM
Cc1cc(-c2[nH]nc(C(=O)N[C@H]3CC[C@H](NC(C)C(C)(C)C)CC3)c2C(C)C)cn2ncnc12 (stereo partly drawn) [Example 148]	11.8 nM	9.93 nM	> 50000 nM
COc1cc(-c2[nH]nc(C(=O)NCC3CCNCC3)c2C(C)C)cn2ncnc12 [Example 62]	88.6 nM	22.3 nM	> 50000 nM
Cc1cc(-c2[nH]nc(C3CCN(C)CC3)c2C(C)C)cn2ncnc12 [Example 206, 6-(4-isopropyl-3-(1-methylpiperidin-4-yl)-1H-pyrazol-5-yl)-8-methyl-[1,2,4]triazolo[1,5-a]pyridine]	2.27 nM	0.64 nM	12600 nM
CC(C)c1c(C(=O)NC2CCN(C(C)C)CC2)n[nH]c1-c1ccc(C#N)c2ncccc12 [Example 40]	29.9 nM	31.1 nM	18900 nM
Cc1cc(-c2[nH]nc(-c3nc4c(s3)CNCC4)c2C(C)C)cn2ncnc12 [Example 218]	1.44 nM	18.6 nM	35900 nM
Cc1cc(-c2[nH]nc(-c3cccc(N)c3)c2C(C)C)cn2ncnc12 [Example 232]	4.19 nM	7.87 nM	> 50000 nM
Cc1cc(-c2c(C(C)C)c(C(=O)NC3CCN(CC(F)(F)F)CC3)nn2CC(F)(F)F)cn2ncnc12 [Example 175, 4-isopropyl-5-(8-methyl-[1,2,4]triazolo[1,5-a]pyridin-6-yl)-1-(2,2,2-trifluoroethyl)-N-(1-(2,2,2-trifluoroethyl)piperidin-4-yl)-1H-pyrazole-3-carboxamide]	3.76 nM	6.23 nM	6250 nM
Cc1cc(-c2[nH]nc(C(=O)NC3CCN(Cc4ncn(C)n4)CC3)c2C(C)C)cn2ncnc12 [Example 158]	8.95 nM	31 nM	14300 nM
Cc1cc(-c2[nH]nc(C3CCC(N(C)C(=O)C4CNC4)CC3)c2C(C)C)cn2ncnc12 (stereo not drawn) [compound 301]	7.77 nM	1.53 nM	12300 nM
Cc1cc(-c2[nH]nc(C(=O)N(C)CCC#N)c2C(C)C)cn2ncnc12 [Example 16]	3.09 nM	2.74 nM	43500 nM
CCCN1CCc2nc(-c3n[nH]c(-c4cc(OC)c5ncnn5c4)c3C(C)C)sc2C1 [Example 260]	170 nM	138 nM	> 50000 nM
Cc1cc(-c2[nH]nc(C(=O)NC3CN(Cc4ncn(C)n4)C3)c2C(C)C)cn2ncnc12 [Example 159]	8.79 nM	4.78 nM	6870 nM
Cc1noc(C)c1CN[C@H]1CC[C@@H](NC(=O)c2n[nH]c(-c3cc(C)c4ncnn4c3)c2C(C)C)CC1 [Example 93]	1.89 nM	15.6 nM	12000 nM
